According to article PMC9687798, “Atypical Substrates of the Organic Cation Transporter 1” (Biomolecules, 2022):
Substitutions are numbered along the chain they refer to.

Experiments:
[1] = biological target: T1, human OCT1*1 (wild-type) (Homo sapiens, UniProt O15245); assay: Cellular uptake ratio, OCT1-overexpressing HEK293 cells vs empty vector; format: cell-based
T1 sequence (O15245 1-554): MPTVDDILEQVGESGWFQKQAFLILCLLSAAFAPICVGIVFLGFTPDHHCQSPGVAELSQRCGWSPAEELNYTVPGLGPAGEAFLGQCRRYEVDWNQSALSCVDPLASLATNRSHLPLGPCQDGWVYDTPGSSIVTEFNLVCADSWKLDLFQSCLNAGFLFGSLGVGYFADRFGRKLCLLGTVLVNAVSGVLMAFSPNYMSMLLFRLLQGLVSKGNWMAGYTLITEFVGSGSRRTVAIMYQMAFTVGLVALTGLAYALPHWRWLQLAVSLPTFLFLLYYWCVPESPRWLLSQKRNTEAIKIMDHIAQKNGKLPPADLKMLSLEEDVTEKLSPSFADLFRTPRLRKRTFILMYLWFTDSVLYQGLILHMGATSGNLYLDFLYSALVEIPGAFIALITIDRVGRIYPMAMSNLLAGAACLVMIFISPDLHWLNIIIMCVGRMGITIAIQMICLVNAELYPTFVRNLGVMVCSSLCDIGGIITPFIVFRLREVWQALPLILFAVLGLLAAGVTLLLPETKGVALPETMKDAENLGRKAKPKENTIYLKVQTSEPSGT
In short: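 Flp-In HEK293 cells stably expressing transporter, or empty pcDNA5/FRT vector as control, incubated at 37 °C in HBSS with 10 mM HEPES, pH 7.4, with substrate. Uptake quantified by LC-MS with internal standard and normalised to total protein. Ratio = total uptake in transporter cells divided by that in empty-vector cells.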

[2] = biological target: T2, OCT1*3 (R61C) (Homo sapiens, UniProt O15245, R61C); assay: Cellular uptake by HEK293 cells overexpressing OCT1*3; format: cell-based; conditions: for uptake by OCT1*3 in comparison to OCT1*1: 1 µM substance; for uptake of prostaglandins by OCT1*3 in comparison to wild-type: 1, 10 and 100 µM, 120 s
T2 construct: expressed in transfected cells
T2 sequence (O15245 1-554 R61C): T1 sequence (O15245 1-554) with R61C
Description: The transport experiments were performed using HEK293 cells that overexpress human OCT1*1 (wild-type), mutant human OCT1 D474N, variant human OCT1*2 (M420del) and OCT1*3 (R61C), wild-type human OCT2, and OCT3 after stable transfection. The wild-type cell lines of OCT1 and OCT2, as well as the variant cell lines OCT1*2 and *3, were generated using the Flp-In system (Thermo Fisher Scientific, Darmstadt, Germany) as described in previous publications. The cell line overexpressing OCT3 was a kind gift from Dr. Koepsell and Dr. Gorbulev (University of Würzburg, Germany). Cells transfected with the empty pcDNA5/FRT vector were used for the transport experiments as a control cell line. All cells were cultured approximately up to passage 30.
Forty-eight hours before the transport experiments, 600,000 cells were plated on 12-well plates pre-coated with poly-D-lysine and incubated at 37 °C with 5% CO2. The prepared 12-well plate with cells was positioned on a heating plate pre-warmed to 37 °C. After removing the medium, the cells were washed with 37 °C HBSS+ (10 mM HEPES in Hank’s balanced salt solution, pH 7.4). Then, one pre-defined concentration of a substrate was added to each well. The incubation period was stopped by adding 2 mL of 4 °C HBSS+ and removing the cells from the heating plate. The cells were washed twice with 4 °C HBSS+. For cell lysis, the cells were incubated for 15 min with 500 µL of 80% acetonitrile (LGC Standards, Wesel, Germany), which contained a respective internal standard (Table 1).
For time-dependent transport, the cells were incubated with 1 µM of the substance for 15 to 240 s to determine the linear uptake range ≥ 15 s. For concentration-dependent transport, the cells were incubated with defined substrate concentrations (0.1, 1, 10, 30, 100, 300, 600, 1000 µM) for the respective pre-defined incubation times. […]; 100 µM) and pre-defined incubation times. The uptake by a transporter was normalised to the uptake by empty vector-transfected cells. […] The results of transport experiments were normalized to the total protein concentration per well. Total protein quantification was performed using a bicinchoninic acid assay with bovine serum albumin as standard.
The ratios of cellular uptake were calculated by dividing the total uptake of transporter-overexpressing cells by the total uptake into empty vector transfected cells. The concentration-dependent cellular net uptake was used for analysis of transport kinetics by subtracting for each substrate concentration the uptake of empty vector-transfected cells from the uptake of transporter-overexpressing cells. The transport kinetic parameters Vmax and KM were determined with non-linear regression by using the Michaelis–Menten equation for net uptake data and by using the Michaelis–Menten equation extended with a linear term for total uptake data (GraphPad Prism 5.01, GraphPad software, LA Jolla, CA, USA). The intrinsic clearance Clint was expressed with the ratio of Vmax and KM.

[3] = based on ratio uptake data at 1 µM
[4] = based on ratio uptake data at 100 µM (footnote *)

SMILES | OCT1 transport category [1, 3] | uptake by OCT1*3 in comparison to OCT1*1 [2] | further results
N=C(N)c1ccc(OCCCCCOc2ccc(C(=N)N)cc2)cc1 [Pentamidine, pentamidine] | +/− (poor transport with a Clint < 5 or ratio between 1–2 with statistical significance (p < 0.05)) | to a small extent | 
CCCCC[C@H](O)/C=C/[C@H]1[C@H](O)CC(=O)[C@@H]1C/C=C\CCCC(=O)O [Prostaglandin E2, prostaglandin E2] |  |  | uptake ratio of prostaglandins by OCT1 wild-type ([1]; 1, 10 and 100 µM, 120 s): strongly increased uptake by OCT1 at higher concentrations; OCT1 transport category [1, 4]: + (good substrates of OCTs when the intrinsic clearance is between 5–15 or the ratio is 2–10); uptake of prostaglandins by OCT1*3 in comparison to wild-type [2]: reduced to the level of the control cell line
CCCCC[C@H](O)/C=C/[C@@H]1[C@@H](C/C=C\CCCC(=O)O)[C@@H](O)C[C@H]1O [Prostaglandin F2α, prostaglandin F2α] |  |  | OCT1 transport category [1, 4]: + (good substrates of OCTs when the intrinsic clearance is between 5–15 or the ratio is 2–10); uptake of prostaglandins by OCT1*3 in comparison to wild-type [2]: reduced to the level of the control cell line
N[C@@H](Cc1ccc(O)c(O)c1)C(=O)O [Levodopa, levodopa] | 0 (no transport by OCT1, OCT2, and OCT3 occurred (i.e., no kinetic parameters or uptake ratio <2 without significance)) |  | 
COc1cc(Cc2cnc(N)nc2N)cc(OC)c1OC [Trimethoprim, trimethoprim] | + (good substrates of OCTs when the intrinsic clearance is between 5–15 or the ratio is 2–10) | reduction in uptake | 
Nc1nc(=O)n([C@@H]2CS[C@H](CO)O2)cc1F [Emtricitabine, emtricitabine] |  | reduction in uptake | uptake ratio by OCT1 (normalised to empty vector) ([1]; 1 µM and 100 µM substance): around 4
Nc1ccn([C@H]2CC[C@@H](CO)O2)c(=O)n1 [Zalcitabine, zalcitabine] | + (good substrates of OCTs when the intrinsic clearance is between 5–15 or the ratio is 2–10) | reduction in uptake | 
